The record followed here is patent publication US10793547B2, “Modulator of the cystic fibrosis transmembrane conductance regulator, pharmaceutical compositions, methods of treatment, and process for making the modulator” (Vertex Pharmaceuticals Incorporated, priority 2016, dated 2020).

SMILES strings stand for the structures.

One may read the EC50 as the concentration that produces a half-maximal response. In general, Papp A→B refers to the apparent permeability from the apical to the basolateral side of a cell layer.

The target of data set [1] is T1, F508del-CFTR (Homo sapiens, UniProt P13569, DEL508-508).
T1 construct: expressed in transfected cells
In words: Membrane potential optical (FLIPR) assay for F508del-CFTR modulators in NIH 3T3 cells. Type of data set: cell-based. The following applies: NIH 3T3 cells expressing F508del; assay A1; read-out: CFTRdF508 Cor 3T3 FLIPR 384 CFTRdF508 MP 3T3 770 EC50. The source says:
Membrane Potential Optical Methods for Assaying Properties of F508del-CFTR Modulators
The assay utilizes fluorescent voltage sensing dyes to measure changes in membrane potential using a fluorescent plate reader (e.g., FLIPR III, Molecular Devices, Inc.) as a readout for increase in functional F508del in NIH 3T3 cells. The driving force for the response is the creation of a chloride ion gradient in conjunction with channel activation and concurrent with compound treatment by a single liquid addition step after the cells have previously been loaded with a voltage sensing dye.
A1. Identification of F508del-CFTR Modulators
To identify modulators of F508del, a fluorescence based HTS assay format was developed. This HTS assay utilizes fluorescent voltage sensing dyes to measure changes in membrane potential on the FLIPR III as a measurement for increase in gating (conductance) of F508del NIH 3T3 cells. The driving force for the response is the creation of a chloride ion gradient in conjunction with channel activation and concurrent with compound treatment by a single liquid addition step after the cells have previously been loaded with a voltage sensing dye.
Bath Solution #1: (in mM) NaCl 160, KCl 4.5, CaCl2 2, MgCl2 1, HEPES 10, pH 7.4 with NaOH, Glucose 10.
Chloride-free bath solution: Chloride salts in Bath Solution #1 (above) are substituted with gluconate salts.
NIH3T3 mouse fibroblasts stably expressing F508del were used for optical measurements of membrane potential. The cells were maintained at 37° C. in 5% CO2 and 90% humidity in Dulbecco's modified Eagle's medium supplemented with 2 mM glutamine, 10% fetal bovine serum, 1×NEAA, β-ME, 1× pen/strep, and 25 mM HEPES in 175 cm^2 culture flasks. For all optical assays, the cells were seeded at 12,000 cells/well in 384-well matrigel-coated plates and cultured for 18-24 hrs at 37° C. for the potentiator assay. For the correction assay, the cells were cultured at 37° C. with and without compounds for 18-24 hours.

Data set [2] addresses T2, human PXR (Homo sapiens, UniProt O75469).
T2 construct: host or cells: DPX-2 cell line (derived from HepG2)
T2 sequence (O75469 1-434): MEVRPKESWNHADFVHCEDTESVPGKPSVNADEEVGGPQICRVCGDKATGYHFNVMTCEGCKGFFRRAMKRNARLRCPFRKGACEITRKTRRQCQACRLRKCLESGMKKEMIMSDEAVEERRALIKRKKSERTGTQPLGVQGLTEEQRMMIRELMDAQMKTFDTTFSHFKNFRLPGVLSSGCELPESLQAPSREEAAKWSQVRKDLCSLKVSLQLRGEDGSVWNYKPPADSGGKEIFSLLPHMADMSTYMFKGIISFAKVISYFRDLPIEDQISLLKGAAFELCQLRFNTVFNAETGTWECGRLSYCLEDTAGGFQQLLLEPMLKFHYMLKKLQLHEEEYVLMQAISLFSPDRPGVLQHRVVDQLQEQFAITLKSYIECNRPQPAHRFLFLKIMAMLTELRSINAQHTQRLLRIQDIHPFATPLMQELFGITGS
In words: PXR assay: PXR mediated CYP3A4 induction in DPX-2 cell line. In kind it is cell-based. Conditions: DPX-2 cells. The method, then:
D. Experimental Protocol for PXR Assay
The propensity for PXR mediated CYP3A4 induction is assessed using the DPX-2 cell line in vitro. This cell line, which has been licensed from Puracyp Inc. was derived from HepG2 cells and has been stably transfected with genes encoding human PXR as well as a modified luciferase reporter linked to the CYP3A4 promoter region and related distal and proximal enhancers.
The assay is run in 384 well format and each test article is administered in 11 doses ranging from 0.1 to 60 μM. On day 1, DPX-2 cells which have previously been expanded in-house and cryopreserved are thawed and seeded in tissue culture plates. The following day, media is changed and cells are cultured in media containing test article, vehicle control or the positive control compound, the clinically validated CYP3A4 inducer rifampicin. Cells are cultured in the presence of test article for 48 hours and then cell viability is assessed using fluorescence based assay (Cell Titer-Fluor, Promega) with an EnVision Plate Reader (PerkinElmer). Subsequently, CYP3A4 transactivation, which is proportional to luciferase activity, is measured by reading luminescense using the Promega One-Glo reagent system using the same plate reader.
Data processing within the Genedata software package allows reporting of max fold induction compared to vehicle control, an EC50 value for CYP3A4 inducers and an 11 point-dose response curve.

The test system of data set [3] is Rat hepatocytes. In words: Hepatocyte clearance, rat hepatocytes. Type of data set: in vitro ADME. The following applies: percent unchanged.
Data set [4] can be described thus: MDCK-Wild Type permeability, 96 well + 0.1% BSA. In kind it is in vitro ADME. The following applies: dog, MDCK, A-B direction, read-out: MDCK-Wild Type-Permeability 96 well + 0.1% BSA Papp compound (A-B).

T1 sequence (P13569 with tags, fused parts or gaps DEL508-508): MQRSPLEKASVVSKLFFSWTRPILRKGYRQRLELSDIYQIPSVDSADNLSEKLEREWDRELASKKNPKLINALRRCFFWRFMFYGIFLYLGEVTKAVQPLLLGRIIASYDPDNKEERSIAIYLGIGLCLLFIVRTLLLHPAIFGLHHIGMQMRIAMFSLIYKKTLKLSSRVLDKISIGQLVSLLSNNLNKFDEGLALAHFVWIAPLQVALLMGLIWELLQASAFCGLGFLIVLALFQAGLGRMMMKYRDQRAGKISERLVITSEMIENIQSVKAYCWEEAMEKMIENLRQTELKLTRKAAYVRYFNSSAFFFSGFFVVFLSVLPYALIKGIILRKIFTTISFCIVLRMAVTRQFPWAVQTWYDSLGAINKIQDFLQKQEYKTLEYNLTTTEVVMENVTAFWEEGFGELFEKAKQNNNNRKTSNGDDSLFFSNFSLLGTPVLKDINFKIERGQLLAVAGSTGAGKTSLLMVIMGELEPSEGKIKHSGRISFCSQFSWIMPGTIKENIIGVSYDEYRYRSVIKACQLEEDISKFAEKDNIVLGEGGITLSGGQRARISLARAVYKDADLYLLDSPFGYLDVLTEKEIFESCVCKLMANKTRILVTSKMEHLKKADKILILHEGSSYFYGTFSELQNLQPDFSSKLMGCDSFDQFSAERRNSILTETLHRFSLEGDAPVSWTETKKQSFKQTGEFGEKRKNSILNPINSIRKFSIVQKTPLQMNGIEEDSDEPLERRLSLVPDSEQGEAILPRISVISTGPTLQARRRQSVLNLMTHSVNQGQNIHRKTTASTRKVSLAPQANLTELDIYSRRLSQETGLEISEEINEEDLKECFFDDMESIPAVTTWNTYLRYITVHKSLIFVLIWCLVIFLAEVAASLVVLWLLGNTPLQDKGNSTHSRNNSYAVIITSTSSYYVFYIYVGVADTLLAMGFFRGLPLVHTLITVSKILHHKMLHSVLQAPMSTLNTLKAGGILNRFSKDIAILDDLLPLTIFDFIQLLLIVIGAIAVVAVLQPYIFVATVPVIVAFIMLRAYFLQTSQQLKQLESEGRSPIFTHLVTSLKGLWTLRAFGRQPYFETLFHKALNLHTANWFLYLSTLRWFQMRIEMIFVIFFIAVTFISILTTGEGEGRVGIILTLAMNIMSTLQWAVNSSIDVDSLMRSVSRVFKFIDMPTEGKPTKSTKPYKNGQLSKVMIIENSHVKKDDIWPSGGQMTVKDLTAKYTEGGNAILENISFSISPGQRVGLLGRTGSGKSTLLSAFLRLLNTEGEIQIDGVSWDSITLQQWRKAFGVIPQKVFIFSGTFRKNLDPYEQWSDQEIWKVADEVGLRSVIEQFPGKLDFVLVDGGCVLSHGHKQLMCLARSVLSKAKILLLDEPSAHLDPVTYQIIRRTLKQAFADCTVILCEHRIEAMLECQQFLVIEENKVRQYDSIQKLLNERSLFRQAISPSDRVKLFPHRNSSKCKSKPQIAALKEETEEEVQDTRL

Consider `C[C@@H]1CN(c2nc(-n3ccc(OCC4CCC4)n3)ccc2C(=O)NS(=O)(=O)c2cccnc2N)C(C)(C)C1` [D, reference compound], for which the EC50 in data set [1] amounted to 210 nM. Further, in data set [2], the “CYP3A4 Induction-PXR human PXR internal Max % Activity” value worked out at 10%. The “Hepatocyte clearance-Rat Rat hepatocytes CL pct_unchanged” value in data set [3] is listed as 19%.
Regarding `Cc1nn(C)cc1S(=O)(=O)NC(=O)c1ccc(-n2ccc(OCC3C[C@@H]4CC[C@H]3C4)n2)nc1N1C[C@@H](C)CC1(C)C` (stereo partly drawn) [Compound 50, N-(1,3-dimethylpyrazol-4-yl)sulfonyl-6-[3-[[(1S,4R)-norbornan-2-yl]methoxy]pyrazol-1-yl]-2-[(4S)-2,2,4-trimethylpyrrolidin-1-yl]pyridine-3-carboxamide], the EC50 in data set [1] turned out to be 80 nM. In addition, the “CYP3A4 Induction-PXR human PXR internal Max % Activity” value in data set [2] stood at 4%. Further, in data set [4], the Papp A→B came out at 1.3 ×10⁻⁶ cm/s. Besides, the “Hepatocyte clearance-Rat Rat hepatocytes CL pct_unchanged” value in data set [3] stood at 20%.
For `Cc1nn(C)cc1S(=O)(=O)NC(=O)c1ccc(-n2ccc(OC(C3CC3)C3CC3)n2)nc1N1C[C@@H](C)CC1(C)C` [Compound 48, 6-[3-(Dicyclopropylmethoxy)pyrazol-1-yl]-N-(1,3-dimethylpyrazol-4-yl)sulfonyl-2-[(4S)-2,2,4-trimethylpyrrolidin-1-yl]pyridine-3-carboxamide], the EC50 in data set [1] was found to be 1000 nM. The “CYP3A4 Induction-PXR human PXR internal Max % Activity” value in data set [2] was 8%. Further, in data set [4], the Papp A→B was 4.6 ×10⁻⁶ cm/s.
For the molecule `Cc1nn(C)cc1S(=O)(=O)NC(=O)c1ccc(-n2ccc(OC3CC3C(F)(F)F)n2)nc1N1C[C@@H](C)CC1(C)C` (stereo partly drawn) [Compound 34, N-(1,3-dimethylpyrazol-4-yl)sulfonyl-6-[3-[2-(trifluoromethyl)cyclopropoxy]pyrazol-1-yl]-2-[(4S)-2,2,4-trimethylpyrrolidin-1-yl]pyridine-3-carboxamide], the EC50 in data set [1] is 610 nM. Besides, the “CYP3A4 Induction-PXR human PXR internal Max % Activity” value in data set [2] came to 6%. Moreover, the Papp A→B in data set [4] came out at 7.5 ×10⁻⁶ cm/s. For the same molecule, in data set [3], the “Hepatocyte clearance-Rat Rat hepatocytes CL pct_unchanged” value was 39%.
With `Cc1nn(C)cc1S(=O)(=O)NC(=O)c1ccc(-n2ccc(OCC3(C(F)(F)F)CCC3)n2)nc1N1C[C@@H](C)CC1(C)C` [Compound 19, N-(1,3-dimethylpyrazol-4-yl)sulfonyl-6-[3-[[1-(trifluoromethyl)cyclobutyl]methoxy]pyrazol-1-yl]-2-[(4S)-2,2,4-trimethylpyrrolidin-1-yl]pyridine-3-carboxamide], in data set [1], the EC50 amounted to 90 nM. The “CYP3A4 Induction-PXR human PXR internal Max % Activity” value in data set [2] is recorded as 1%. Also, in data set [4], the Papp A→B amounted to 8.8 ×10⁻⁶ cm/s.
In the case of `Cc1nn(C)c(C)c1S(=O)(=O)NC(=O)c1ccc(-n2ccc(OCC(C)(C)C(F)(F)F)n2)nc1N1C[C@@H](C)CC1(C)C` [Compound 17, 6-[3-(3,3,3-trifluoro-2,2-dimethyl-propoxy)pyrazol-1-yl]-N-(1,3,5-trimethylpyrazol-4-yl)sulfonyl-2-[(4S)-2,2,4-trimethylpyrrolidin-1-yl]pyridine-3-carboxamide], the EC50 in data set [1] came out at 170 nM. In addition, the “CYP3A4 Induction-PXR human PXR internal Max % Activity” value in data set [2] was 3%. Further, the Papp A→B in data set [4] worked out at 3.8 ×10⁻⁶ cm/s. In addition, in data set [3], the “Hepatocyte clearance-Rat Rat hepatocytes CL pct_unchanged” value is recorded as 19%.
Taken in the same sequence, the figures for `Cc1nn(C)cc1S(=O)(=O)NC(=O)c1ccc(-n2ccc(O[C@H]3C[C@@H]4CC[C@H]3C4)n2)nc1N1C[C@@H](C)CC1(C)C` [Compound 51, N-(1,3-dimethylpyrazol-4-yl)sulfonyl-6-[3-[(1S,2S,4R)-norbornan-2-yl]oxypyrazol-1-yl]-2-[(4S)-2,2,4-trimethylpyrrolidin-1-yl]pyridine-3-carboxamide] were 150 nM, 6%, 2.9 ×10⁻⁶ cm/s and 29%.
Turning to `C[C@@H]1CN(c2nc(-n3ccc(OCC4(C(F)(F)F)CC4)n3)ccc2C(=O)NS(=O)(=O)c2cn[nH]c2)C(C)(C)C1` [Compound 5, N-(1H-pyrazol-4-ylsulfonyl)-6-[3-[[1-(trifluoromethyl)cyclopropyl]methoxy]pyrazol-1-yl]-2-[(4S)-2,2,4-trimethylpyrrolidin-1-yl]pyridine-3-carboxamide], the EC50 in data set [1] was determined as 1300 nM. In addition, the “CYP3A4 Induction-PXR human PXR internal Max % Activity” value in data set [2] amounted to 0%. Further, in data set [4], the Papp A→B was 0.3 ×10⁻⁶ cm/s. Besides, the “Hepatocyte clearance-Rat Rat hepatocytes CL pct_unchanged” value in data set [3] was 33%.
For the molecule `C[C@@H]1CN(c2nc(-n3ccc(OCC4(C(F)(F)F)CC4)n3)ccc2C(=O)NS(=O)(=O)c2cnn(C)c2)C(C)(C)C1` [Compound 6, N-(1-methylpyrazol-4-yl)sulfonyl-6-[3-[[1-(trifluoromethyl)cyclopropyl]methoxy]pyrazol-1-yl]-2-[(4S)-2,2,4-trimethylpyrrolidin-1-yl]pyridine-3-carboxamide], the EC50 in data set [1] stood at 300 nM. In addition, in data set [2], the “CYP3A4 Induction-PXR human PXR internal Max % Activity” value is reported as 0.9%. Besides, in data set [4], the apical-to-basolateral permeability (Papp A→B) stood at 2.1 ×10⁻⁶ cm/s. For the same molecule, the “Hepatocyte clearance-Rat Rat hepatocytes CL pct_unchanged” value in data set [3] is reported as 53%.
Consider `Cc1nn(C)cc1S(=O)(=O)NC(=O)c1ccc(-n2ccc(OCC(C3CC3)C3CC3)n2)nc1N1C[C@@H](C)CC1(C)C` [Compound 32, 6-[3-(2,2-dicyclopropylethoxy)pyrazol-1-yl]-N-(1,3-dimethylpyrazol-4-yl)sulfonyl-2-[(4S)-2,2,4-trimethylpyrrolidin-1-yl]pyridine-3-carboxamide], for which, in data set [1], the EC50 was 200 nM. Also, in data set [2], the “CYP3A4 Induction-PXR human PXR internal Max % Activity” value worked out at 5%. The Papp A→B in data set [4] came to 3.8 ×10⁻⁶ cm/s.
In the case of `Cc1c(S(=O)(=O)NC(=O)c2ccc(-n3ccc(OCC4CC45CC5)n3)nc2N2C[C@@H](C)CC2(C)C)cnn1C` (stereo partly drawn) [Compound 26, N-(1,5-dimethylpyrazol-4-yl)sulfonyl-6-[3-(spiro[2.2]pentan-2-ylmethoxy)pyrazol-1-yl]-2-[(4S)-2,2,4-trimethylpyrrolidin-1-yl]pyridine-3-carboxamide], the EC50 in data set [1] was determined as 1000 nM. Also, the “CYP3A4 Induction-PXR human PXR internal Max % Activity” value in data set [2] is 6%. Besides, the Papp A→B in data set [4] turned out to be 2.3 ×10⁻⁶ cm/s.
For `Cc1nn(C)cc1S(=O)(=O)NC(=O)c1ccc(-n2ccc(OCC(C)(C)C(F)(F)F)n2)nc1N1C[C@H](C)CC1(C)C` [Compound 37, N-(1,3-Dimethylpyrazol-4-yl)sulfonyl-6-[3-(3,3,3-trifluoro-2,2-dimethyl-propoxy)pyrazol-1-yl]-2-[(4R)-2,2,4-trimethylpyrrolidin-1-yl]pyridine-3-carboxamide], the EC50 in data set [1] was 290 nM. Further, the “CYP3A4 Induction-PXR human PXR internal Max % Activity” value in data set [2] turned out to be 7%. In data set [4], the Papp A→B is 5.1 ×10⁻⁶ cm/s.
On to `CCn1cc(S(=O)(=O)NC(=O)c2ccc(-n3ccc(OCC4(C(F)(F)F)CC4)n3)nc2N2C[C@@H](C)CC2(C)C)cn1` [Compound 7, N-(1-ethylpyrazol-4-yl)sulfonyl-6-[3-[[1-(trifluoromethyl)cyclopropyl]methoxy]pyrazol-1-yl]-2-[(4S)-2,2,4-trimethylpyrrolidin-1-yl]pyridine-3-carboxamide], for which the EC50 in data set [1] stood at 650 nM. Further, the “CYP3A4 Induction-PXR human PXR internal Max % Activity” value in data set [2] turned out to be 4%. Further, the Papp A→B in data set [4] is 3.1 ×10⁻⁶ cm/s.
